In this data set the test system is Lewis Lung Carcinoma. The settings on record: mouse, in vivo, ip.

The text below walks through data of US8795659B2 (priority 2004, dated 2014).

In the case of `O=P1(N(CCCl)CCCl)NCCCO1` (centres unmarked) [Cyclophosphamide, cyclophosphamide], the “% ILS (excluding survivors)” value is 68%, the Highest non-toxic dosage was found to be 200, the “T-C (tumor growth delay to 750 mg)” value came out at 27 days and the tumor free survivors is on record as 5/10.
Taken in the same sequence, the figures for `O=P1(NCCCl)OCCCN1CCCl` (centres unmarked) [Ifosfamide] were 55%, 300, 18 days and 7/10.
